Consider four compounds from patent US10577317B2, “Crystal forms and production methods thereof” (Sunovion Pharmaceuticals Inc., priority 2017, dated 2020).

SMILES strings stand for the structures. Values after ≈ are worked out from the molar mass of the structure shown. “Also recorded” adds a separate entry of the source. Where two headings read alike, the source gives them in different places.

Common to all, as to type: physicochemical
Data set [1] in a line: Solubility (mg/mL) in water, buffers, simulated fluids and organic solvents (Table 1).
Data set [2] is described as follows: DVS water sorption isotherm, 25° C. scanned over 0 to 95% relative humidity (hygroscopicity). The following applies: DVS, 25° C., 0 to 95% relative humidity. An excerpt:
In various embodiments, the hygroscopicity of crystal forms of racemic amisulpride, enantiomeric amisulpride, and enantiomeric amisulpride solvates are characterized by dynamic vapor sorption (DVS). DVS is a gravimetric technique that measures how much of a solvent is absorbed by a sample by varying the vapor concentration surrounding the sample (e.g., relative humidity) and measuring the change in mass. In the present application, DVS is used to generate water sorption isotherms, which represent the equilibrium amount of vapor sorbed as a function of steady state relative vapor pressure at a constant temperature.

Data set [3] in a line: Desolvation of ethyl acetate solvate crystal forms upon drying and heating. The following applies: drying and heating above about 30° C. Here is the method: For example, Examples 4A and 4B teach methods of producing crystalline (R)-amisulpride ethyl acetate solvate of Form B. The product of these examples upon drying above about 30° C., desolvates and converts to crystals of crystalline (R)-amisulpride free base of Form A and amorphous. Similarly, for example, Example 7 teaches a method producing crystalline (S)-amisulpride ethyl acetate solvate of Form B′. The product of these examples upon drying above about 30° C., desolvates and converts to crystals of crystalline (S)-amisulpride free base of Form A′ and amorphous. Although the fraction of the solvate that converts to Form A or Form A′ in the above examples is low, it is sufficient for obtaining seed crystals.
In various preferred embodiments, crystals of enantiomeric amisulpride ethyl acetate solvate are isolated by cooling the reaction mixture to below about 10° C., and preferably to about −10° C., until a slurry is formed. The slurry is slowly warmed and agitated for at least 1 hour at a temperature less than about 10° C., then filtered and washed with ethyl acetate at room temperature, and the resultant residue allowed to dry to isolate the desired crystalline enantiomeric amisulpride ethyl acetate solvate having a powder x-ray crystal pattern comprising peaks, in terms of 2-theta, at least at 6.4±0.2°, 8.3±0.2°, and 20.8±0.2°.

For the compound `CCN1CCCC1CNC(=O)c1cc(S(=O)(=O)CC)c(N)cc1OC` (racemic) [crystalline racemic amisulpride, 4-amino-N-[(1-ethylpyrrolidin-2-yl)methyl]-5-ethylsulfonyl-2-methoxy-benzamide, reference compound], the solubility in data set [1] (acetone/MtBE 1:4, organic solvent or mixture, read-out: Solubility (mg/mL): Acetone/MtBE 1:4) was 0.4 mg/mL (≈ 1080 µM); in data set [1] (acetone/MtBE 1:9, organic solvent or mixture, read-out: Solubility (mg/mL): Acetone/MtBE 1:9), 0.2 mg/mL (≈ 541 µM); in data set [1] (ethyl acetate, organic solvent or mixture, read-out: Solubility (mg/mL): Ethyl Acetate) it was 0.5 mg/mL (≈ 1350 µM); in data set [1] (water, solution pH 10.2 (Form A), 10.3 (Form A′), read-out: Solubility (mg/mL): Water) it was less than 1 mg/mL.
In the case of `CCN1CCC[C@H]1CNC(=O)c1cc(S(=O)(=O)CC)c(N)cc1OC.O=C(O)C(O)C(O)C(=O)O` [(S)-amisulpride D-tartrate, S-(−)-4-Amino-N-[(1-ethyl-2-pyrrolidinyl)methyl]-5-(ethylsulfonyl)-2-methoxybenzamide D-tartrate, reference compound], the hygroscopicity result in data set [2] was “highly hygroscopic”. Moreover, the “maximum mass change in water sorption isotherms (n=4, σ=18.25)” value in data set [2] (n=4) amounted to 52±9%.
In the case of `CCN1CCC[C@@H]1CNC(=O)c1cc(S(=O)(=O)CC)c(N)cc1OC.CCOC(C)=O` [Form B, (R)-4-Amino-N-[(1-ethyl-2-pyrrolidinyl)methyl]-5-(ethylsulfonyl)-2-methoxybenzamide ethyl acetate solvate], the “desolvation of ethyl acetate solvate form” value in data set [3] is “desolvate upon drying and heating about 30 °C to convert to Form A; also recorded: desolvate to Form A and amorphous”.
As for `CCN1CCC[C@H]1CNC(=O)c1cc(S(=O)(=O)CC)c(N)cc1OC.CCOC(C)=O` [Form B′, S-4-Amino-N-[(1-ethyl-2-pyrrolidinyl)methyl]-5-(ethylsulfonyl)-2-methoxybenzamide ethyl acetate solvate], the “desolvation of ethyl acetate solvate form” value in data set [3] was “desolvate upon drying and heating about 30 °C; also recorded: desolvate to Form A′ and amorphous”.
